Common to all, as to format: cell-based
One assay deals with MV4-11. In words: CellTiter-Blue cell viability, MV4-11. The note with it: Homo sapiens, MV4-11; AML cell line, 72 hours. On the procedure: (§1) The anti-cancer efficacy of exemplary compounds of the application were assessed in vitro against different cancer cell lines. Cell viability was examined following treatment at various concentrations of inhibitor (0.097656-50 μM) using a CellTiter-Blue® cell viability assay. 1×10^4 cells/well were plated in 96-well assay plates in culture medium. All cells were grown in DMEM, IMDM and RPMI-1640 supplemented with 10% fetal bovine serum (FBS). In some instances, FBS was removed for periods ranging from 16-24 hours, and re-introduced with test compound addition. After 24 hrs, test compounds and vehicle controls were added to appropriate wells such that the final volume was 100 μl in each well. The cells were cultured for the desired test exposure period (72 hours) at 37° C. and 5% CO2. The assay plates were removed from 3° C. incubator and 20 μl/well of CellTiter-Blue® Reagent was added. The plates were incubated using standard cell culture conditions for 1-4 hours. Afterwards, the plates were shaken for 10 seconds and florescence was recorded at 560/590 nm using a Cytation 3 spectrophotometer. IC50 values were determined using non-linear regression analysis with GraphPad Prism 6.0 (GraphPad Software Inc.).

In another assay the test system is MOLM13. In words: CellTiter-Blue cell viability, MOLM13. Conditions: Homo sapiens, MOLM-13; AML cell line, 72 hours. On the procedure:
as §1

The subject of assay [1] is primary human fibroblast cells (PHF). In words: CellTiter-Blue cell viability, PHF. Conditions: non-cancerous, 72 hours. The protocol: as §1
Assay [2] relates to healthy human lung cells (MRC9). In words: CellTiter-Blue cell viability, MRC9. The note with it: non-cancerous, 72 hours. On the procedure:
as §1

The test system of assay [3] is UFMylation pathway (UBA5, UFC1, UFM1, c-Myc) in MV4-11 cells. In words: Western blot of UFMylation pathway in MV4-11 cells. The note with it: 8 hours, 0 to 1 μM. The protocol:
Post-treatment (8 hours) of MV4-11 cells with I-1 test compound at 1, 0.5, 0.25, 0.1 and 0 μM concentrations, all cells were lysed with radioimmunoprecipitation assay (RIPA) buffer: 20 mM Tris pH 7.4, 150 mM NaCl, 0.5% deoxycholate, 1% Triton X-100, 0.1% sodium dodecyl sulfate (SDS). Total protein was measured using BCA assay (Sigma). In each assay, clarified protein were resolved on a 4%-15% polyacrylamideSDS gel and transferred to a PVDF membrane (Bio-Rad). The membranes were blocked with 5% solution of skim milk powder in TBST and incubated for at least 1 hour followed by an overnight incubation at 4° C. in primary antibody (1:1000 dilution). Blots were probed with antibodies against UBA5, UFM1, UFC1, c-Myc, and beta-actin was used as a loading control (Santa Cruz Biotechnology catalog # sc-835). The PVDF membrane then washed with TBST (3 times for 5 minutes). A horseradish peroxides (HRP)-conjugated goat anti-mouse IgG secondary antibodies (Cell signaling Catalog #7076S) was applied to the membrane (1:5000 dilution) and incubated for 1 hour at room temperature. The blots were then rinsed again 3 times in TBST for 10 minutes. Bands were visualized using clarity western ECL substrate luminal/enhancer solution and peroxide solution 1:1 ratio for HRP secondary antibody, according to the manufacturer's instructions (Bio-Rad) and analyzed using Image lab software (Bio-Rad).

Structures are written as SMILES.

Turning to `NC(=O)c1ccc(CN(C2CC2)S(=O)(=O)c2c(F)c(F)c(F)c(F)c2F)cc1` [Compound I-20, 4-(((N-cyclopropyl-2,3,4,5,6-pentafluorophenyl)sulfonamido)methyl)benzamide], the IC50 was 1050 nM with MV4-11, 1.7 µM in the assay on MOLM13 and 4.9 µM in assay [1].
With `O=S(=O)(c1c(F)c(F)c(F)c(F)c1F)N(Cc1ccc(C(F)(F)F)cc1)C1CC1` [Compound I-25, N-cyclopropyl-2,3,4,5,6-pentafluoro-N-(4-(trifluoromethyl)benzyl)benzenesulfonamide], the 50% inhibitory concentration (IC50) in the assay with MV4-11 was 950 nM; with MOLM13, 1.05 µM; in assay [1] it was 3 µM.
In the case of `N#Cc1ccc(CN(C2CC2)S(=O)(=O)c2c(F)c(F)c(F)c(F)c2F)cc1` [Compound I-23, N-(4-cyanobenzyl)-N-cyclopropyl-2,3,4,5,6-pentafluorobenzenesulfonamide], the IC50 turned out to be 990 nM in the assay on MV4-11, 2.58 µM in the assay on MOLM13, 7.8 µM in assay [2] and 5.5 µM in assay [1].
The matching figures for `CC(C)N(Cc1ccc(F)cc1F)S(=O)(=O)c1c(F)c(F)c(F)c(F)c1F` [Compound I-49, N-(2,4-difluorobenzyl)-2,3,4,5,6-pentafluoro-N-isopropylbenzenesulfonamide]: 1010 nM, 4.2 µM, 16.7 µM and 4.5 µM.
On to `O=C(O)c1ccc(CN(C2CC2)S(=O)(=O)c2c(F)c(F)c(F)c(F)c2F)cc1` [Compound I-26, 4-(((N-cyclopropyl-2,3,4,5,6-pentafluorophenyl)sulfonamido)methyl)benzoic acid], for which the IC50 with MV4-11 turned out to be 1200 nM; with MOLM13, 1.9 µM; in assay [1], 6.5 µM.
Consider `O=S(=O)(c1c(F)c(F)c(F)c(F)c1F)N(Cc1ccc(F)cn1)C1CC1` [Compound I-13, N-cyclopropyl-2,3,4,5,6-pentafluoro-N-((5-fluoropyridin-2-yl)methyl)benzenesulfonamide], for which the IC50 in the assay with MV4-11 stood at 1700 nM; in the assay with MOLM13, 1.1 µM; in assay [2] it was 25 µM; in assay [1] it was 5.5 µM.
The like results for `O=S(=O)(c1c(F)c(F)c(F)c(F)c1F)N(Cc1ccc(F)nc1)C1CC1` [Compound I-12, N-cyclopropyl-2,3,4,5,6-pentafluoro-N-((6-fluoropyridin-3-yl)methyl)benzenesulfonamide] were, in that order, 1350 nM, 3.07 µM, 18 µM and 5 µM.
In the case of `O=S(=O)(c1c(F)c(F)c(F)c(F)c1F)N(Cc1cccc(N2CCOCC2)c1)C1CC1` [Compound I-34, N-cyclopropyl-2,3,4,5,6-pentafluoro-N-(3-morpholinobenzyl)benzenesulfonamide], the half-inhibitory concentration (IC50) came to 960 nM in the assay on MV4-11, 7.95 µM with MOLM13 and 14.1 µM in assay [2].
Consider `O=S(=O)(c1c(F)c(F)c(F)c(F)c1F)N(Cc1c(F)cc(F)cc1F)C1CC1` [Compound I-36, N-cyclopropyl-2,3,4,5,6-pentafluoro-N-(2,4,6-trifluorobenzyl)benzenesulfonamide], for which the 50% inhibitory concentration (IC50) worked out at 1520 nM in the assay on MV4-11, 6.81 µM with MOLM13, 26 µM in assay [2] and 8.1 µM in assay [1].
As for `O=S(=O)(c1c(F)c(F)c(F)c(F)c1F)N(Cc1ccccc1F)C1CCC1` [Compound I-45, N-cyclobutyl-2,3,4,5,6-pentafluoro-N-(2-fluorobenzyl)benzenesulfonamide], the half-maximal inhibitory concentration (IC50) was determined as 2270 nM in the assay on MV4-11, 3.9 µM in the assay on MOLM13 and 14.2 µM in assay [2].
For `Nc1cccc(-c2ccc(CN(C3CC3)S(=O)(=O)c3c(F)c(F)c(F)c(F)c3F)cc2)c1` [Compound I-39, N-((3′-amino-[1,1′-biphenyl]-4-yl)methyl)-N-cyclopropyl-2,3,4,5,6-pentafluorobenzenesulfonamide], the half-inhibitory concentration (IC50) was found to be 1520 nM with MV4-11, 14.9 µM with MOLM13 and 15.7 µM in assay [2].
Turning to `O=S(=O)(c1c(F)c(F)c(F)c(F)c1F)N(Cc1ccc(F)cc1F)C1CC1` [Compound I-35, N-cyclopropyl-N-(2,4-difluorobenzyl)-2,3,4,5,6-pentafluorobenzenesulfonamide], the 50% inhibitory concentration (IC50) in the assay with MV4-11 is 1700 nM; in the assay with MOLM13 it was 3.96 µM; in assay [2], 13.5 µM.
The matching figures for `COc1cc(CN(C2CC2)S(=O)(=O)c2c(F)c(F)c(F)c(F)c2F)cc(OC)c1O` [Compound I-29, N-cyclopropyl-2,3,4,5,6-pentafluoro-N-(4-hydroxy-3,5-dimethoxybenzyl)benzenesulfonamide]: 1940 nM, 3.96 µM and 9.7 µM.
As for `O=S(=O)(c1c(F)c(F)c(F)c(F)c1F)N(Cc1ccc(F)cc1)CC1CC1` [Compound I-2, N-(cyclopropylmethyl)-2,3,4,5,6-pentafluoro-N-(4-fluorobenzyl)benzenesulfonamide], the concentration for half-maximal inhibition (IC50) with MV4-11 amounted to 850 nM; with MOLM13 it was 1.6 µM; in assay [2], 7.7 µM; in assay [1], 2.9 µM.
For the compound `O=S(=O)(c1c(F)c(F)c(F)c(F)c1F)N(CC#Cc1ccccc1)C1CC1` [Compound I-31, N-cyclopropyl-2,3,4,5,6-pentafluoro-N-(3-phenylprop-2-yn-1-yl)benzenesulfonamide], the IC50 was 1530 nM with MV4-11, 5.2 µM in the assay on MOLM13 and 15.5 µM in assay [2].
As for `O=S(=O)(NC1CC1)c1c(F)c(F)c(F)c(F)c1F` [Comparative Example 6, N-cyclopropyl-2,3,4,5,6-pentafluorobenzenesulfonamide, reference compound], the IC50 in the assay with MV4-11 came out at 6400 nM; in the assay on MOLM13, 7 µM; in assay [2], 19.1 µM.
Turning to `CC(C)N(Cc1ccccc1F)S(=O)(=O)c1c(F)c(F)c(F)c(F)c1F` [Compound I-48], the IC50 with MV4-11 worked out at 1190 nM; in the assay with MOLM13, 4.11 µM; in assay [2], 15 µM; in assay [1] it was 3 µM.
On to `O=S(=O)(c1c(F)c(F)c(F)c(F)c1F)N(Cc1cccc(F)c1)C1CC1` [Compound I-11, N-cyclopropyl-2,3,4,5,6-pentafluoro-N-(3-fluorobenzyl)benzenesulfonamide], for which the values for the 50% inhibitory concentration (IC50) (in the assay with MV4-11; in the assay with MOLM13; in assay [2]) were 1700 nM, 3.37 µM and 9 µM, respectively.
Take `O=S(=O)(c1c(F)c(F)c(F)c(F)c1F)N(Cc1ccccc1F)C1CC1` [Compound I-40, N-cyclopropyl-2,3,4,5,6-pentafluoro-N-(2-fluorobenzyl)benzenesulfonamide]: the results for the IC50 in the assay with MV4-11 and in the assay on MOLM13 were 330 nM and 3.2 µM, respectively. Also, in assay [3], the “reduction of UBA5 levels and UFC1-UFM1 conjugate levels” value is given as “comparable activity to I-1”.
With `CC(C)(C)C(=O)N(Cc1ccc(F)cc1)S(=O)(=O)c1c(F)c(F)c(F)c(F)c1F` [Compound I-54, N-(4-fluorobenzyl)-N-((perfluorophenyl)sulfonyl)pivalamide], the values for the half-inhibitory concentration (IC50) (in the assay on MV4-11; with MOLM13; in assay [1]) were 700 nM, 1.7 µM and 3 µM, respectively.
Regarding `CC(C)N(Cc1ccc(F)cc1)S(=O)(=O)c1c(F)c(F)c(F)c(F)c1F` [Compound I-16, 2,3,4,5,6-pentafluoro-N-(4-fluorobenzyl)-N-isopropylbenzenesulfonamide], the IC50 in the assay with MV4-11 is 1200 nM; with MOLM13, 3.5 µM; in assay [2], 25 µM; in assay [1], 7.2 µM.
The like results for `O=S(=O)(c1c(F)c(F)c(F)c(F)c1F)N(Cc1c(F)cc(F)cc1F)C1CCC1` [Compound I-47, N-cyclobutyl-2,3,4,5,6-pentafluoro-N-(2,4,6-trifluorobenzyl)benzenesulfonamide] were, in that order, 1140 nM, 8.4 µM, 15.7 µM and 3.7 µM.
On to `O=S(=O)(c1c(F)c(F)c(F)c(F)c1F)N(Cc1ccccc1)Cc1ccc(F)cc1` [Compound I-3], for which the IC50 was 590 nM with MV4-11, 9.3 µM in the assay with MOLM13 and 14.4 µM in assay [2].

(Values after patent US20200277268A1, “PENTAFLUOROPHENYL SULFONAMIDE COMPOUNDS, COMPOSITIONS AND USES THEREOF” (DALRIADA THERAPEUTICS INC., priority 2017, published 2020).)
